Assays:
[1] = Storage stability of artemether in solvent systems, impurities by HPLC; assay type: physicochemical; settings: in contact with water, ethanol, or propellants
Excerpt: Tables 1 and 2 show impurities present in Artemether API, and artemether in three solvent systems: 20% ethanol+80% propellant; 50% ethanol+50% propellant; 100% ethanol; and a medium chain triglyceride, in this case, the triglyceride sold under the registered trade mark Miglyol® 810. Miglyol® is a medium chain triglyceride containing saturated C8 and C10 fatty acids, typically between 65-80% of caprylic acid (C8:0) and 20-35% of capric acid (C10:0). The propellant used in these test was 1,1,1,2 tetrafluoroethane, sold under the registered trade mark Zephex® 134a. Similar results were obtained for the propellants butane, Zephex® 227 (1,1,1,2,3,3,3 heptafluoropropane) and for a mixture of butane and propane. […] In all other cases, the impurities are at levels that exceed those permitted under the ICH Harmonised Tripartite Guidelines for Impurities in New Drug Products without specific identification or further toxicological examination.

[2] = animals, oral administration; cited from earlier work

Stability of artemether in contact with solvents [1]: not stable
SMILES: CO[C@H]1O[C@@H]2O[C@@]3(C)CC[C@H]4[C@H](C)CC[C@@H]([C@H]1C)[C@@]24OO3 [artemether]
bioavailability [2]: 19-35%

— patent US20190290576A1, “ANTI-MALARIAL PHARMACEUTICAL COMPOSITION” (Protopharma Limited, priority 2007, published 2019)
